Tests used:
Experiment in all cases: relative viability (nuclei count vs DMSO), 5 days (fraction); higher = more cells survive
[1] = test system: NCI-H1666
Method in brief: (§1)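 The day after seeding in 1536-well plates, lung cancer cell lines were treated by pin tool with a single drug, or with a fixed anchor-drug dose together with five library-drug doses (not always all listed) in √10 steps. After 5 days, a combined fix-and-stain solution (final 0.05% Triton X-100, 1% formaldehyde, 1 ug/ml Hoechst) was added. Nuclei counted on 4× images gave relative viability as treated counts over vehicle counts, reported as the median of duplicate plates.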

[2] = test system: NCI-H1944
Method in brief: as §1

[3] = test system: HARA
Method in brief: as §1

[4] = test system: HCC-366
Method in brief: as §1

[5] = test system: NCI-H2347
Method in brief: as §1

[6] = test system: NCI-H1792
Method in brief: as §1

[7] = test system: NCI-H2405
Method in brief: as §1

[8] = test system: HCC-15
Method in brief: as §1

[9] = test system: NCI-H1734
Method in brief: as §1

[10] = test system: NCI-H358
Method in brief: as §1

[11] = test system: PC-3 [JPC-3]
Method in brief: as §1

[12] = test system: LU99A
Method in brief: as §1

[13] = test system: NCI-H1975
Method in brief: as §1

[14] = test system: NCI-H460
Method in brief: as §1

[15] = test system: NCI-H661
Method in brief: as §1

[16] = test system: NCI-H650
Method in brief: as §1

[17] = test system: NCI-H1623
Method in brief: as §1

[18] = test system: NCI-H838
Method in brief: as §1

[19] = test system: NCI-H1793
Method in brief: as §1

[20] = test system: NCI-H2228
Method in brief: as §1

[21] = test system: NCI-H3122
Method in brief: as §1

[22] = test system: LXF-289
Method in brief: as §1

[23] = test system: SW 1573
Method in brief: as §1

Nc1cccc2c1CN(C1CCC(=O)NC1=O)C2=O (stereo not given) [Lenalidomide] + Cc1nc(Nc2ncc(C(=O)Nc3c(C)cccc3Cl)s2)cc(N2CCN(CCO)CC2)n1 [Dasatinib] (partner 0.075 µM)
relative viability ([1]; first compound 0.253 µM): 0.858 | relative viability ([1]; first compound 2.53 µM): 0.849 | relative viability ([1]; first compound 8 µM): 0.783 | relative viability ([2]; first compound 0.253 µM): 0.239 | relative viability ([2]; first compound 0.8 µM): 0.251 | relative viability ([2]; first compound 2.53 µM): 0.208 | relative viability ([2]; first compound 8 µM): 0.173 | relative viability ([3]; first compound 0.253 µM): 0.3 | relative viability ([3]; first compound 2.53 µM): 0.293 | relative viability ([3]; first compound 8 µM): 0.287 | relative viability ([4]; first compound 0.253 µM): 0.661 | relative viability ([4]; first compound 0.8 µM): 0.622 | relative viability ([4]; first compound 2.53 µM): 0.752 | relative viability ([4]; first compound 8 µM): 0.334 | relative viability ([5]; first compound 0.253 µM): 0.264 | relative viability ([5]; first compound 0.8 µM): 0.365 | relative viability ([5]; first compound 2.53 µM): 0.286 | relative viability ([5]; first compound 8 µM): 0.214 | relative viability ([6]; first compound 0.253 µM): 0.8 | relative viability ([6]; first compound 0.8 µM): 0.69 | relative viability ([6]; first compound 2.53 µM): 0.893 | relative viability ([6]; first compound 8 µM): 0.865 | relative viability ([7]; first compound 0.253 µM): 0.23 | relative viability ([7]; first compound 0.8 µM): 0.185 | relative viability ([7]; first compound 2.53 µM): 0.217 | relative viability ([7]; first compound 8 µM): 0.21 | relative viability ([8]; first compound 0.253 µM): 0.629 | relative viability ([8]; first compound 0.8 µM): 0.526 | relative viability ([8]; first compound 2.53 µM): 0.816 | relative viability ([8]; first compound 8 µM): 0.527 | relative viability ([9]; first compound 0.253 µM): 0.506 | relative viability ([9]; first compound 0.8 µM): 0.474 | relative viability ([9]; first compound 2.53 µM): 0.562 | relative viability ([9]; first compound 8 µM): 0.4 | relative viability ([10]; first compound 0.253 µM): 0.196 | relative viability ([10]; first compound 0.8 µM): 0.235 | relative viability ([10]; first compound 2.53 µM): 0.19 | relative viability ([10]; first compound 8 µM): 0.165 | relative viability ([11]; first compound 0.253 µM): 1 | relative viability ([11]; first compound 0.8 µM): 0.901 | relative viability ([11]; first compound 2.53 µM): 1.08 | relative viability ([11]; first compound 8 µM): 1.04 | relative viability ([12]; first compound 0.253 µM): 0.473 | relative viability ([12]; first compound 0.8 µM): 0.471 | relative viability ([12]; first compound 2.53 µM): 0.54 | relative viability ([12]; first compound 8 µM): 0.308 | relative viability ([13]; first compound 0.253 µM): 0.406 | relative viability ([13]; first compound 0.8 µM): 0.287 | relative viability ([13]; first compound 2.53 µM): 0.486 | relative viability ([13]; first compound 8 µM): 0.366 | relative viability ([14]; first compound 0.253 µM): 0.597 | relative viability ([14]; first compound 0.8 µM): 0.473 | relative viability ([14]; first compound 2.53 µM): 0.673 | relative viability ([14]; first compound 8 µM): 0.308 | relative viability ([15]; first compound 0.253 µM): 0.934 | relative viability ([15]; first compound 0.8 µM): 0.854 | relative viability ([15]; first compound 2.53 µM): 0.918 | relative viability ([15]; first compound 8 µM): 0.86 | relative viability ([16]; first compound 0.253 µM): 0.459 | relative viability ([16]; first compound 2.53 µM): 0.474 | relative viability ([16]; first compound 8 µM): 0.355 | relative viability ([17]; first compound 0.253 µM): 0.51 | relative viability ([17]; first compound 0.8 µM): 0.466 | relative viability ([17]; first compound 2.53 µM): 0.523 | relative viability ([17]; first compound 8 µM): 0.497 | relative viability ([18]; first compound 0.253 µM): 0.368 | relative viability ([18]; first compound 0.8 µM): 0.301 | relative viability ([18]; first compound 2.53 µM): 0.302 | relative viability ([18]; first compound 8 µM): 0.252 | relative viability ([19]; first compound 0.253 µM): 0.349 | relative viability ([19]; first compound 2.53 µM): 0.412 | relative viability ([19]; first compound 8 µM): 0.212 | relative viability ([20]; first compound 0.253 µM): 0.444 | relative viability ([20]; first compound 0.8 µM): 0.58 | relative viability ([20]; first compound 2.53 µM): 0.562 | relative viability ([20]; first compound 8 µM): 0.405 | relative viability ([21]; first compound 0.253 µM): 0.897 | relative viability ([21]; first compound 0.8 µM): 0.991 | relative viability ([21]; first compound 2.53 µM): 0.746 | relative viability ([21]; first compound 8 µM): 0.677 | relative viability ([22]; first compound 0.253 µM): 0.235 | relative viability ([22]; first compound 0.8 µM): 0.347 | relative viability ([22]; first compound 2.53 µM): 0.234 | relative viability ([22]; first compound 8 µM): 0.213 | relative viability ([23]; first compound 0.253 µM): 0.637 | relative viability ([23]; first compound 0.8 µM): 0.547 | relative viability ([23]; first compound 2.53 µM): 0.455 | relative viability ([23]; first compound 8 µM): 0.392

Nc1cccc2c1CN(C1CCC(=O)NC1=O)C2=O (stereo not given) [Lenalidomide] + N=C(N)NC(=N)NCCc1ccccc1 [Phenformin] (partner 250 µM)
relative viability ([1]; first compound 0.253 µM): 0.331 | relative viability ([1]; first compound 2.53 µM): 0.635 | relative viability ([1]; first compound 8 µM): 0.527 | relative viability ([2]; first compound 0.253 µM): 0.213 | relative viability ([2]; first compound 0.8 µM): 0.191 | relative viability ([2]; first compound 2.53 µM): 0.223 | relative viability ([2]; first compound 8 µM): 0.174 | relative viability ([3]; first compound 0.253 µM): 0.414 | relative viability ([3]; first compound 2.53 µM): 0.595 | relative viability ([3]; first compound 8 µM): 0.417 | relative viability ([4]; first compound 0.253 µM): 0.564 | relative viability ([4]; first compound 0.8 µM): 0.547 | relative viability ([4]; first compound 2.53 µM): 0.691 | relative viability ([4]; first compound 8 µM): 0.548 | relative viability ([5]; first compound 0.253 µM): 0.409 | relative viability ([5]; first compound 0.8 µM): 0.488 | relative viability ([5]; first compound 2.53 µM): 0.497 | relative viability ([5]; first compound 8 µM): 0.206 | relative viability ([6]; first compound 0.253 µM): 0.369 | relative viability ([6]; first compound 2.53 µM): 0.574 | relative viability ([6]; first compound 8 µM): 0.189 | relative viability ([7]; first compound 0.253 µM): 0.382 | relative viability ([7]; first compound 0.8 µM): 0.416 | relative viability ([7]; first compound 2.53 µM): 0.416 | relative viability ([7]; first compound 8 µM): 0.351 | relative viability ([8]; first compound 0.253 µM): 0.474 | relative viability ([8]; first compound 0.8 µM): 0.489 | relative viability ([8]; first compound 2.53 µM): 0.53 | relative viability ([8]; first compound 8 µM): 0.482 | relative viability ([9]; first compound 0.253 µM): 0.39 | relative viability ([9]; first compound 0.8 µM): 0.413 | relative viability ([9]; first compound 2.53 µM): 0.425 | relative viability ([9]; first compound 8 µM): 0.34 | relative viability ([10]; first compound 0.253 µM): 0.338 | relative viability ([10]; first compound 0.8 µM): 0.371 | relative viability ([10]; first compound 2.53 µM): 0.405 | relative viability ([10]; first compound 8 µM): 0.359 | relative viability ([11]; first compound 0.253 µM): 0.482 | relative viability ([11]; first compound 0.8 µM): 0.432 | relative viability ([11]; first compound 2.53 µM): 0.502 | relative viability ([11]; first compound 8 µM): 0.511 | relative viability ([12]; first compound 0.253 µM): 0.76 | relative viability ([12]; first compound 0.8 µM): 0.875 | relative viability ([12]; first compound 2.53 µM): 0.96 | relative viability ([12]; first compound 8 µM): 0.564 | relative viability ([13]; first compound 0.253 µM): 0.402 | relative viability ([13]; first compound 0.8 µM): 0.35 | relative viability ([13]; first compound 2.53 µM): 0.474 | relative viability ([13]; first compound 8 µM): 0.336 | relative viability ([14]; first compound 0.253 µM): 0.462 | relative viability ([14]; first compound 0.8 µM): 0.522 | relative viability ([14]; first compound 2.53 µM): 0.671 | relative viability ([14]; first compound 8 µM): 0.563 | relative viability ([15]; first compound 0.253 µM): 0.276 | relative viability ([15]; first compound 0.8 µM): 0.314 | relative viability ([15]; first compound 2.53 µM): 0.296 | relative viability ([15]; first compound 8 µM): 0.249 | relative viability ([16]; first compound 0.253 µM): 0.528 | relative viability ([16]; first compound 2.53 µM): 0.523 | relative viability ([16]; first compound 8 µM): 0.42 | relative viability ([17]; first compound 0.253 µM): 0.572 | relative viability ([17]; first compound 0.8 µM): 0.576 | relative viability ([17]; first compound 2.53 µM): 0.601 | relative viability ([17]; first compound 8 µM): 0.544 | relative viability ([18]; first compound 0.253 µM): 0.545 | relative viability ([18]; first compound 0.8 µM): 0.541 | relative viability ([18]; first compound 2.53 µM): 0.689 | relative viability ([18]; first compound 8 µM): 0.468 | relative viability ([19]; first compound 0.253 µM): 0.384 | relative viability ([19]; first compound 2.53 µM): 0.515 | relative viability ([19]; first compound 8 µM): 0.344 | relative viability ([20]; first compound 0.253 µM): 0.273 | relative viability ([20]; first compound 0.8 µM): 0.327 | relative viability ([20]; first compound 2.53 µM): 0.27 | relative viability ([20]; first compound 8 µM): 0.264 | relative viability ([21]; first compound 0.253 µM): 0.379 | relative viability ([21]; first compound 0.8 µM): 0.387 | relative viability ([21]; first compound 2.53 µM): 0.395 | relative viability ([21]; first compound 8 µM): 0.457 | relative viability ([22]; first compound 0.253 µM): 0.536 | relative viability ([22]; first compound 0.8 µM): 0.547 | relative viability ([22]; first compound 2.53 µM): 0.565 | relative viability ([22]; first compound 8 µM): 0.58 | relative viability ([23]; first compound 0.253 µM): 0.432 | relative viability ([23]; first compound 0.8 µM): 0.43 | relative viability ([23]; first compound 2.53 µM): 0.347 | relative viability ([23]; first compound 8 µM): 0.345
